According to ChEMBL document CHEMBL1201862, “PubChem BioAssay data set” (2004):
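Each compound was tested at five concentrations against cells in 96-well plates for 48 hours. The concentration for 50% growth inhibition is given as GI50.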 The source made the active and inactive calls. Rule as the data show it: active = GI50 up to about 1.1 µM and inactive = higher.

How the values were obtained:
Assay in all cases: growth of human tumour cells (NCI), 48 h
[1] = tested on: 786-0
[2] = tested on: HL-60
[3] = tested on: IGROV-1
[4] = tested on: MDA-MB-231
[5] = tested on: MDA-MB-435
[6] = tested on: MDA-N
[7] = tested on: Malme-3M
[8] = tested on: NCI-H226
[9] = tested on: NCI-H460
[10] = tested on: NCI-H522
[11] = tested on: NCI/ADR-RES
[12] = tested on: OVCAR-4
[13] = tested on: OVCAR-8
[14] = tested on: SK-OV-3
[15] = tested on: SN12C
[16] = tested on: SNB-19
[17] = tested on: SR
[18] = tested on: U-251
[19] = tested on: UACC-62
[20] = tested on: RPMI-8226

Measured: GI50

Cc1cc(S(=O)(=O)Nc2nc(N)n(-c3cnc4ccccc4n3)n2)c(S)cc1Cl
inactive: [1] > 100 µM | [2] > 100 µM | [3] > 100 µM | [4] > 100 µM | [5] > 100 µM | [6] > 100 µM | [7] > 100 µM | [8] 43.7 µM | [9] 36.6 µM | [10] > 100 µM | [11] > 100 µM | [12] > 100 µM | [13] > 100 µM | [14] 85.7 µM | [15] > 100 µM | [16] 39.1 µM | [17] > 10 µM | [18] 41.9 µM | [19] 49.7 µM

O=C(/C=C/c1cccc(Oc2ccccc2)c1)NCc1ccc(C(=O)NCc2ccccc2)cc1
inactive: [1] 29 µM | [3] 79.8 µM | [4] 52.2 µM | [5] > 100 µM | [6] > 100 µM | [7] 41.3 µM | [8] 27.5 µM | [9] > 100 µM | [10] 98.9 µM | [11] 35.3 µM | [12] 31 µM | [13] 14.1 µM | [20] > 100 µM | [14] 4.55 µM | [15] > 100 µM | [16] 32.4 µM | [17] > 100 µM | [18] 38.1 µM | [19] 79.8 µM

C=CC(=O)Nc1ccc(NC(=O)C=C)c2c1C(=O)c1ccccc1C2=O
inactive: [1] 21.5 µM | [2] 3.86 µM | [3] > 100 µM | [4] 97.7 µM | [5] > 10 µM | [6] 36.1 µM | [7] > 100 µM | [9] > 100 µM | [10] 16.6 µM | [11] > 100 µM | [13] 27.7 µM | [20] 3.03 µM | [15] 35.8 µM | [16] > 100 µM | [17] 28.1 µM | [18] 20.9 µM | [19] 21.4 µM

CC(Cc1cccc2c1Nc1ccccc1S2)N(C)CCO (stereo unspecified)
inactive: [1] > 100 µM | [2] > 100 µM | [3] > 100 µM | [4] > 100 µM | [5] > 100 µM | [6] > 100 µM | [7] > 100 µM | [8] > 100 µM | [9] > 100 µM | [10] > 100 µM | [11] > 100 µM | [12] > 100 µM | [13] > 100 µM | [14] > 100 µM | [15] > 100 µM | [16] > 100 µM | [17] > 100 µM | [18] > 100 µM | [19] > 100 µM

C[C@]12CC[C@H](O)CC1=CC[C@@H]1C2CC[C@]2(C)Nc3c(cnn3-c3ccc(F)cc3)CC12 (stereo partly specified)
inactive: [1] 3.09 µM | [2] 4.12 µM | [3] > 100 µM | [4] > 41.8 µM | [5] 41.2 µM | [6] > 53.8 µM | [7] 14.2 µM | [8] 40.9 µM | [9] 3.51 µM | [10] 48.1 µM | [11] 21.5 µM | [12] 19 µM | [13] 23.3 µM | [14] 15.7 µM | [15] 37.4 µM | [16] 19.3 µM | [17] > 100 µM | [18] 6.3 µM | [19] 14.6 µM

CN(C)c1ccc(/C=c2/c3ccccc3n3nc4ccccc4c23)cc1
inactive: [1] 27 µM | [2] 21.2 µM | [3] 22.1 µM | [4] 47 µM | [5] 3.35 µM | [6] 3.13 µM | [7] > 100 µM | [9] 30.1 µM | [10] 5.71 µM | [11] 11.1 µM | [13] 39.8 µM | [20] 10.7 µM | [14] 13.1 µM | [15] 73.6 µM | [16] 76.9 µM | [17] 3.34 µM | [18] 22.6 µM | [19] 15.3 µM
